Counter-ions that a name gives are not always drawn. Residues, ends and D or L forms follow the SMILES beside them. *: point of attachment. Hydrocinnamoyl = O=C(CCc1ccccc1)*; pNA = O=[N+]([O-])c1ccc(N*)cc1; Bz = O=C(c1ccccc1)*
Legend:
Assay type in all cases: biochemical
[1] = target: T1, plasmin (Homo sapiens, UniProt P00747); assay: Activity of human plasmin measured with the substrates at constant substrate and enzyme concentrations; details: split product
Experimental: (§1) HCl, were used for the quantitative determination of various enzymes in blood plasma. The determination was carried out by taking advantage of the fact that the split product NH2 -R^2 formed by enzymatic hydrolysis of the substrate has a UV spectrum which differs from that of the substrate and is shifted toward higher wave lengths. Thus, N^α-Bz-Pro-Phe-Arg-pNA^.
(§2) The degree of the enzymatic hydrolysis of the substrate, which is proportional to the quantity of p-nitroaniline formed, can be easily determined by spectrophotometric measurement at 405 nm. […] The conditions are practically the same for the other substrates carrying a p-nitroanilino group as a chromogenic group. The spectrophotometric measurement was, therefore, carried out in all cases at 405 nm.

[2] = target: thrombin (Homo sapiens, UniProt P00734); assay: Km and vmax determination with substrate (Lineweaver-Burk), thrombin; details: NIH units per 1 substrate unit
Experimental: (§3) As is evident from equation (2) constants Km and k3 determine the activity of the enzyme substrate for a given enzyme. For determining these constants the following procedure is followed:
(§4) The enzyme and the substrate are mixed in a buffer solution, and the reaction is followed spectrophotometrically for 2 to 30 minutes. The concentration of substrate [S] is varied, whereas the enzyme concentration [E] is kept constant. If the extinction (OD) (= optical density) is plotted in a co-ordinate system as a function of time, a curve is obtained the tangent of which (difference in extinction per minute, Δ OD/minute, from which the quantity in μmoles of pNA/min (v) can be calculated) at time zero corresponds to the ideal course of the hydrolysis. By means of this tangent the initial rate of the hydrolysis can be determined.
(§5) If 1/v is plotted against 1/[S], a Lineweaver-Burk diagram (cf. "Kurzes Lehrbuch der Biochemie" by P. KARSON, Georg Thieme-Verlag, Stuttgart, 1967, p. 70) is obtained from which vmax and Km can be determined graphically.
(§6) Km and k3 = vmax /E were determined with N^α-Bz-Pro-Phe-Arg-pNA^. HCl (i.e. the substrate prepared according to Example 1) for plasma kallikrein, trypsin, plasmin and thrombin.

[3] = target: T1, plasmin; assay: Km and vmax determination with substrate (Lineweaver-Burk), plasmin; details: casein units per 1 substrate unit
Experimental: as §3, §4, §5, §6

[4] = target: T2, prothrombin activator from venom of the snake Echis carinatus (Echis carinatus, UniProt Q90495); assay: Activity of prothrombin activator measured with substrates at a constant substrate concentration
T2 sequence (Q90495 191-616): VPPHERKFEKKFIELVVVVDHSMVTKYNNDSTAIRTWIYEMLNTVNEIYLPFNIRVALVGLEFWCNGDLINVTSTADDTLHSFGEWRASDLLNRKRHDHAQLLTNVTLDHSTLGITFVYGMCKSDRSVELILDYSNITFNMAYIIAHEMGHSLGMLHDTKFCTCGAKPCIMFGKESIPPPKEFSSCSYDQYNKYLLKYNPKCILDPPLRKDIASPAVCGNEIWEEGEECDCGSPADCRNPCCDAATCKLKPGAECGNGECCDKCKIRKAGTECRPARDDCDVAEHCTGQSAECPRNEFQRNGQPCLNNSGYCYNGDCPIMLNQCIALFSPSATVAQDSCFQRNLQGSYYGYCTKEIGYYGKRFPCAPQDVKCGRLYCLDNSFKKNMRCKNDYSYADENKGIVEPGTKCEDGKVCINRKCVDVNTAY
Description: (§7) The degree of the enzymatic hydrolysis of the substrate, which is proportional to the quantity of p-nitroaniline formed, can be easily determined by spectrophotometric measurement at 405 nm. The presence of an excess of substrate exerts no disturbing effect on the measurement at 405 nm. The conditions are practically the same for the other substrates carrying a p-nitroanilino group as a chromogenic group. The spectrophotometric measurement was, therefore, carried out in all cases at 405 nm.
(§8) Activity of papain and prothrombin activator, measured by means
(§9) Quantity in nm of p-nitroaniline (pNA) re-
(§10) leased within 1 minute by 0.1 milli-Anson
(§11) unit^3) of papain and 10 μg of a pure fraction
of the prothrombin activator from venom of
the snake Echis carinatus
^2) The prothrombin activator is a serine-protease which was isolated
from the venom of the snake Echis carinatus.

[5] = target: T3, trypsin (Bos taurus, UniProt P00760); assay: Km and vmax determination with substrate (Lineweaver-Burk), trypsin; details: NF units per 1 substrate unit
T3 sequence (P00760 24-246): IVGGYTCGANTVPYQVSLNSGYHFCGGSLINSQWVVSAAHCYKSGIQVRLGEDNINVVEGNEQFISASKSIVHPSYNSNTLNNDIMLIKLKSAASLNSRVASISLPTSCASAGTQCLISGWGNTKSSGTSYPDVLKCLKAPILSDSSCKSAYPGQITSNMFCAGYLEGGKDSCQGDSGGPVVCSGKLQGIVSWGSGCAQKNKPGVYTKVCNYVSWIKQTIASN
Experimental: as §3, §4, §5, §6

[6] = target: T4, plasma kallikrein (Homo sapiens, UniProt P03952); assay: Activity of plasma kallikrein measured with the substrates at constant substrate and enzyme concentrations; details: split product
T4 sequence (P03952 391-638 limits assumed, species assumed): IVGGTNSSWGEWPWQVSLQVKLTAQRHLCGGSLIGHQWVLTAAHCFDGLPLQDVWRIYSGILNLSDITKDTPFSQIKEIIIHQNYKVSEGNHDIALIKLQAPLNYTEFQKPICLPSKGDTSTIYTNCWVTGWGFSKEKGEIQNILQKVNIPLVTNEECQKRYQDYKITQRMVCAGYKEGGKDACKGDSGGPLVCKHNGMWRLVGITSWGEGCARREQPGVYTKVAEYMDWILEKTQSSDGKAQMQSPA
T4 sequence (P03952 20-390 partner limits assumed, species assumed): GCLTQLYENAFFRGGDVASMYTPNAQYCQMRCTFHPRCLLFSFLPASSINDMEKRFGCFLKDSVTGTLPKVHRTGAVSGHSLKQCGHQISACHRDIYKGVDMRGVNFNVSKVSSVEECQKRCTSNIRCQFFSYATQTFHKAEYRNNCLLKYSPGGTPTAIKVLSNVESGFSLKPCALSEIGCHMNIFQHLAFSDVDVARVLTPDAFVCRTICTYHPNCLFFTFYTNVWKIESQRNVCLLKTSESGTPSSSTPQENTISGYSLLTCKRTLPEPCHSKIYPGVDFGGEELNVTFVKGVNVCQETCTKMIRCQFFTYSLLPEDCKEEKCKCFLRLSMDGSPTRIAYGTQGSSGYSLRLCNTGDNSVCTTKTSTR
Experimental: as §1, §2

[7] = target: T4, plasma kallikrein; assay: Km and vmax determination with substrate (Lineweaver-Burk), plasma kallikrein; details: common units per 1 substrate unit
Experimental: as §3, §4, §5, §6

[8] = target: T5, papain (Carica papaya, UniProt P00784); assay: Activity of papain measured with substrates at a constant substrate concentration
T5 construct: from tissue; host or cells: latex of the Carica papaya fruit
T5 sequence (P00784 134-345): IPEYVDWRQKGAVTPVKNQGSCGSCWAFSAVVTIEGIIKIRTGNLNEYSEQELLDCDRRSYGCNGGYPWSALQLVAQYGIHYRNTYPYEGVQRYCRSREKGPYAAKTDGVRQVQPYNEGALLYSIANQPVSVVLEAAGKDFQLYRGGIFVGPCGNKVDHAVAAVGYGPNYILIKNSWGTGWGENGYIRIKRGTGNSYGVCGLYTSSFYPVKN
Description: as §7, §8, §9, §10, §11
^1) Papain is a cysteine-protease isolated from the latex of the gree
^3) One Anson unit is the enzyme quantity which releases 1 mmole of
folin-positive amino acids (calculated as tyrosine) in 1 minute (cf. Art.

T1 sequence (P00747 581-810 limits assumed): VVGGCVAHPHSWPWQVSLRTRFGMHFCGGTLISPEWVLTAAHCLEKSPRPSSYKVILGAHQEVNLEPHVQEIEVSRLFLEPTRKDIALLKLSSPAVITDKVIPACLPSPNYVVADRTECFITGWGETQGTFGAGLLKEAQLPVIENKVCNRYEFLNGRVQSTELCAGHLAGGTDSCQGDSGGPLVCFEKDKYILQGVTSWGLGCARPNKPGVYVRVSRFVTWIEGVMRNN
T1 sequence (P00747 97-580 partner limits assumed): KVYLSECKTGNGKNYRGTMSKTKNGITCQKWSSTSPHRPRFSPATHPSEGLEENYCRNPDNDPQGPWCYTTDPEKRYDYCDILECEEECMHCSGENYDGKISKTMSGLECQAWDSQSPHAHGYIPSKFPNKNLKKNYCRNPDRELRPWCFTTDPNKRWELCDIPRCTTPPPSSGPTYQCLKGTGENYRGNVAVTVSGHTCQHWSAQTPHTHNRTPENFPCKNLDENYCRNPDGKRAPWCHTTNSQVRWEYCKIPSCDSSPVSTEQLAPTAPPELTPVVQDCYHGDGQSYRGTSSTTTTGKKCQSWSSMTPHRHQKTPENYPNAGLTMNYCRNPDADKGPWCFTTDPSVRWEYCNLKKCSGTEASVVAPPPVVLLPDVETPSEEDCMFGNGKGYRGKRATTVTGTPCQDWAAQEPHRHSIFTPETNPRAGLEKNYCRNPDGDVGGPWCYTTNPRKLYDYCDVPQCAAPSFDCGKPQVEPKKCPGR

With N=C(N)NCCC[C@H](NC(=O)[C@H](Cc1ccccc1)NC(=O)[C@@H]1CCCN1C(=O)c1ccccc1)C(=O)Nc1ccc([N+](=O)[O-])cc1 [Substrate I, N^α-Bz-Pro-Phe-Arg-pNA^. HCl] (Bz-Pro-Phe-Arg-pNA) the “Quantity of p-nitroaniline (pNA), β-naphthylamine (2-NA) or 4-methoxy-β-naphthylamine (4-MeO-2-NA) released within 1 minute by one C unit of human plasmin” value [1] was 152.0 nm, the “relation between substrate units and common units (1 U = x)” value [2] was 117600 NIH and the “relation between substrate units and common units (1 U = x)” value [3] was 518 C U. The “Quantity of p-nitroaniline (pNA) released within 1 minute by 10 μg of a pure fraction of the prothrombin activator from venom of Echis carinatus” value [4] was 13.1 nm, the “relation between substrate units and common units (1 U = x)” value [5] was 12000 NF and the “Quantity of p-nitroaniline (pNA), β-naphthylamine (2-NA) or 4-methoxy-β-naphthylamine (4-MeO-2-NA) released within 1 minute by 1 BAEE unit of plasma kallikrein” value [6] was 135.5 nm. For the same molecule, the “relation between substrate units and common units (1 U = x)” value [7] was 4.8 BAEE U.

For N=C(N)NCCC[C@H](NC(=O)[C@H](Cc1ccccc1)NC(=O)[C@@H]1CCCN1C(=O)CCc1ccccc1)C(=O)Nc1ccc([N+](=O)[O-])cc1 [Substrate VII, N^α -3-Phenyl-propionyl-Pro-Phe-Arg-pNA.HCl] (Hydrocinnamoyl-Pro-Phe-Arg-pNA), the “Quantity of p-nitroaniline (pNA), β-naphthylamine (2-NA) or 4-methoxy-β-naphthylamine (4-MeO-2-NA) released within 1 minute by one C unit of human plasmin” value [1] was 144.0 nm, the “Quantity of p-nitroaniline (pNA), β-naphthylamine (2-NA) or 4-methoxy-β-naphthylamine (4-MeO-2-NA) released within 1 minute by 1 BAEE unit of plasma kallikrein” value [6] was 256.0 nm and the “Quantity of p-nitroaniline (pNA) released within 1 minute by 0.1 milli-Anson unit of papain” value [8] was 24.9 nm.

From patent US4016042A, “Substrate for the quantitative determination of enzymes” (Pentapharm A.G., priority 1974, dated 1977)
